Laboratory results taken from US7704953B2, “Phage displayed cell binding peptides” (MDRNA, Inc., priority 2006, dated 2010).

Key:
antibody AB167 [1] = experiment: Phage ELISA for TAG suppression (binding of antibody AB167); design: species or system rabbit; conditions: 10^8 pfu/ml; relative to clone B1 grown in the same host; /B = nonsuppressor BLT5403, /C = suppressor C600CR; average of triplicate wells
Procedure: (§1) Phage purified by double precipitation with PEG was diluted in Dulbecco's PBS (DPBS) and applied to wells of a 96-well Maxisorp® plate (Nalge Nunc International®, Rochester, N.Y.) and allowed to bind for one hour followed by three washes with 400 μl of OptEIA wash buffer (BD Biosciences) and blocking with 1% BSA in TBS-Tween (0.1%). All washes were done at room temperature with slow orbital shaking. Antibody AB 167 diluted 1:500 was applied in PBS-T containing 1% BSA and allowed to bind for one hour at room temperature then washed five times with 400 μl of wash buffer. Bound antibody was detected with the secondary antibody goat anti-rabbit HRP diluted 1:1000 in PBS-T with 1% BSA applied for one hour and washed five times with 400 μl of wash buffer followed by development with OptEIA reagents according to the manufacturer's directions. Means were compared using Student's t-test.
Growth of phage containing the insert encoding Trp cage TC5b in the host BLT5403 which limits expression to 5 to 10 copies of the peptide, produced clones displaying the expected sequence […] (SEQ ID NO: 530) with a low frequency of mutations (one out of twelve sequenced clones). […] Some of the mutant clones contained the TAG stop codon within the Trp cage sequence and were expected to result in the display of truncated peptides. Two nonsense mutants, E7 which contained a TAG stop codon at Tyr-3 of the Trp cage sequence NL*IQWLKDGGPSSGRPPPS (SEQ ID NOs: 588 and 534, respectively in order of appearance) and E12 which contained a TAG stop codon at Trp-6 of the Trp cage sequence NLYIQ*LKDGGPSSGRPPPS (SEQ ID NOs: 535 and 553, respectively in order of appearance), were chosen to test the effectiveness of the suppressor host C600CR by ELISA. […] Since AB167 is a polyclonal antibody, some binding to the truncated peptides of E7 and E12 was expected with possibly greater binding to E12 because it is three residues longer than E7.
Binding of antibody AB167 to T7Select® 10-3b phage grown in the nonsuppressor host BLT5403 (B) was compared with binding to phage grown in the suppressor host C600CR (C). […] Binding of the antibody to phage mutants E7 and E12 displaying truncated Trp cages grown in B (E7/B and E12/B, respectively) was related to antibody binding to phage clone B I displaying the full length Trp cage on a percentage basis. The phage mutants grown in C (E7/C and E12/C) were likewise related to B1 grown in C. Results represent the average of triplicate wells.

16HBE140- cells = experiment: Phage ELISA binding to 16HBE140- cells; assay type: cell-based, human; conditions: unfixed cells; for OD 450 nm: 10^10 pfu/ml, average of triplicate wells; for Binding to 16HBE140- cells (in words): phage ELISA
Procedure: Phage binding to 16HBE140- cells was analyzed using confluent cells grown with DMEM-F12 complete medium in 96-well collagen coated plates (BD Biosciences, San Diego, Calif.) at 37° C. in 5% CO2. The cells were washed with DPBS and phage diluted in DPBS containing 1% BSA (DPBS-BSA) were applied in 100 μl. Bound phage were detected using primary antibody (mouse IgG T7 tail fiber monoclonal antibody diluted 1:2000 in DPBS-BSA) and secondary antibody (goat anti-mouse IgG HRP diluted 1:5000 in DPBS-BSA) followed by detection with OptEIA reagents as above.
Binding of phage T7Select®10-3b displaying Trp cage TC5b (Trp cage) was compared to binding of three phage clones selected from the naïve Trp cage library after 3 rounds of panning against the human bronchial epithelial cell line 16HBE140-. Results represent the average of triplicate wells.

HepG2 cells [2] = experiment: Fluorescence microscopy with FITC-labeled phage on HepG2 cells; assay type: cell-based, human; conditions: ~e9 pfu per well, 1 hr, visualized at 200×
Procedure: The phage microscopy protocol is as follows:
1. Grow HepG2 cells on collagen I coated glass chamber slides to 100% confluence.
2. On the day of the experiment, wash cells 3 to 5 times ˜300 μl/well of PBS.
3. Fix with 100 μl/well of methanol (chilled at −20C) for 7 min at room temperature.
4. Wash 3-5 times with ˜300 μl/well of PBS.
5. Apply 10 μl/well (˜e9 pfu) of FITC-labeled M13 phage.
6. Incubate on a rotating platform at room temperature for 1 hr in the dark.
7. Wash 5 times with ˜300 μl/well of PBS.
8. Remove chambers, dry, mount, and visualize at 200×.
(§2) Staining by the positive controls was less intense than NLQEFLF (SEQ ID NO: 61).

HUVEC cells = experiment: Cell-based ELISA for cell-specific binding, HUVEC; design: species or system human; conditions: M13 PHD-7 phage clone
Procedure: (§3) For screening cell-specific binding phage display peptides, confluent HepG2 or HUVEC cells grown in DMEM-F12-complete in a 96-well plate fixed with methanol, stored at 4° C. Applied 250 μl/well of diluted phage and incubated in wells for 1 hour while shaking. Stopped reactions with 75 ul of 1M HCl after ˜5-7 min, read at 450 nm.
(§4) Representative display peptides isolated from panning against either HepG2 or HUVEC cells with the Trp cage and M13 libraries were tested for cell-specific binding. The peptide having the amino acids sequence SIGYLPL (SEQ ID NO: 532) and the peptide having the amino acid sequence LTAELTP (SEQ ID NO: 533) served as positive HepG2 binding controls. The 7-mer display peptide represented by the amino acid sequence HPQ served as a negative binding control.
as §2

HepG2 cells [3] = experiment: Cell-based ELISA for cell-specific binding, HepG2; design: species or system human; conditions: methanol-fixed HepG2 cells, M13 PHD-7 phage clones
Procedure: as §3, §4, §2

antibody AB167 [4] = experiment: Phage ELISA with antibody AB167 for display of Trp cage TC5b on the phage capsid; assay type: binding, rabbit; conditions: 1×10^6, 1×10^7 and 1×10^8 phage per well
Procedure: as §1
Two negative controls were used. One was the 10-3b vector with no insert and the other was the 10-3b vector containing the S-Tag. All phage were incubated with the AB167 antibody at 1×10^6, 1×10^7 and 1×10^8 phage per well for the ELISA.

antibody AB167 [5] = experiment: Western analysis of phage lysates with antibody AB167; assay type: binding, rabbit; conditions: SDS-PAGE separated proteins, AB167 diluted 1:2500
Procedure: For Western analysis, phage were purified by double precipitation with PEG and denatured by boiling in Tris-Glycine SDS sample buffer (2×) with 1% beta-mercaptoethanol (BME). A 10 μl sample containing 1×10^11 pfu/ml was loaded into a well of a 1 mm 4% to 20% Tris-Glycine gel (Invitrogen®) and electrophoresed for 1.5 hours at 150 volts (constant voltage) in Tris-Glycine SDS running buffer. The separated proteins were transferred to a PVDF membrane (1.5 hours at room temperature) and blocked with 3% non-fat dry milk in TBS-T (0.05%) for one hour at room temperature. The membrane was probed for two hours with antibody AB167 diluted 1:2500 at room temperature followed by three five minute washes with TBS-T. Goat anti-rabbit HRP diluted 1:5000 was used to detect the bound AB167 antibody. It was incubated with the membrane for one hour at room temperature followed by four 10 minute washes and the membrane was developed with SuperSignal West Femto Maximum Sensitivity Substrate® (Pierce®) according to the manufacturer's instructions. MagicMark XP Western Protein Standards were used for size reference standards.
For the Western blot analysis of Trp cage TC5b expressed with the 10-3b T7Select® vector, proteins in lysates from phage infected cells were separated by SDS-PAGE in Coomasie stained gel. […]

## NLYIQWLKDGGPSSGRPPPS [B1/C]
Antibody AB167 [1]
  Percent antibody binding: 100%

## NLYIQ*LKDGGPSSGRPPPS [E12/C]
Antibody AB167 [1]
  Percent antibody binding: 62%

## DRYPQWLNGMGPSSGRPPPN* [624-55-20]
16HBE140- cells
  OD 450 nm: 0.22

## DPYAQWLQSMGPHSGRPPPR* [624-55-29]
16HBE140- cells
  OD 450 nm: 0.39
  Binding to 16HBE140- cells (in words): demonstrated binding

## NLQEFLF [M13 PHD-7 phage display peptide isolated by panning against HepG2 cells]
HepG2 cells [2]
  Binding/staining of FITC-labeled phage on methanol-fixed HepG2 cells: bound
HUVEC cells
  Binding to HUVEC cells (cell-based ELISA): did not bind
HepG2 cells [3]
  Binding to HepG2 cells (cell-based ELISA): HepG2 specific binding

## NL*IQWLKDGGPSSGRPPPS [E7/C]
Antibody AB167 [1]
  Percent antibody binding: 65%

## NL*IQWLKDGGPSSGRPPPS [E7/B]
Antibody AB167 [1]
  Percent antibody binding: 32%

## NLYIQ*LKDGGPSSGRPPPS [E12/B]
Antibody AB167 [1]
  Percent antibody binding: 50%

## NLYIQWLKDGGPSSGRPPPS [10-3b/TC5b, reference compound]
16HBE140- cells
  OD 450 nm: 0.22
  Binding to 16HBE140- cells (in words): low
Antibody AB167 [4]
  ELISA signal with antibody AB167: signal was detected
Antibody AB167 [5]
  Binding of antibody AB167 to protein of phage lysate (Western blot): contained a protein that bound the Trp cage specific antibody AB167

## DAYPQWLFTPGPTSGRPPPL* [624-55-21]
16HBE140- cells
  OD 450 nm: 0.15
